For test [1], the system named is model of sephadex-induced eosinophilic lung inflammation in rats. Description: Content of cell elements in BAL in the model of sephadex-induced eosinophilic lung inflammation in rats. The test is classed as in vivo, male Wistar rats. The conditions noted are these: BAL 48 hours after sephadex. How it is done: The model of sephadex-induced eosinophilic lung inflammation in rats was realized by a standard method [Evaldsson C, Rydén I, Uppugunduri S. Isomaltitol exacerbates neutrophilia but reduces eosinophilia: new insights into the sephadex model of lung inflammation//Int Arch Allergy Immunol. 2011; 154(4):286-94]. Sephadex G-200 (Pharmacia, Sweden) was administered one time by inhalation to male Wistar rats at a dose of 5 mg/kg. The studied compounds were administered to the animals by the intragastric route four times: 24 hours and 1 hour before and 24 hours and 45 hours after administration of sephadex. The reference preparation, budesonide, was administered according to the same scheme, by inhalation at a dose of 0.5 mg/kg. Bronchoalveolar lavage was taken 48 hours after the inhalation of sephadex, and the total lymphocyte count and leukocyte formula in the lavage were determined. The number of rats in a group was 7 to 10.

For test [2], the system named is model of bronchial asthma in guinea pigs. In words: Content of cell elements in the blood in the model of bronchial asthma in guinea pigs. The test is classed as in vivo, guinea pig. The conditions noted are these: Table 6 Experiment No. 2, 6 times, n = 8. As to the method: (§1) Bronchial asthma in guinea pigs was induced by a standard method [Ricciardolo F L, Nijkamp F, De Rose V, Folkerts G. The guinea pig as an animal model for asthma// Current Drug Targets. 2008 June; 9(6):452-65]. The animals were immunized by one parenteral administration of 0.5 mL of a solution comprising 100 μg/mL ovalbumin (Sigma) and 100 mg/mL aluminium hydroxide. Intact animals received a physiological saline solution in an amount of 0.5 mL.
(§2) On days 29, 30 and 31, hyperactivity of the respiratory airways was provoked by inhalation administration of ovalbumin in ascending concentrations of 0.1, 0.3, and 0.5 mg/mL on days 1, 2, and 3 of the provocation, respectively. The inhalation lasted 5 minutes or until asphyxia symptoms became apparent (fall to one side). On day 32, the animals received a challenging dose of ovalbumin (1 mg/mL) for 5 minutes, while assessing a bronchospastic reaction.
(§3) The studied compounds were administered to the animals once daily every day for 6 or 10 days; the administration was terminated two days before the administration of the challenging dose of antigen.
(§4) The bronchoalveolar lavage (BAL) and cardiac cavity blood were derived from the animals 24 hours after administration of the challenging dose. The BAL was collected under anesthesia by lavaging the lungs with 5 mL of a physiological saline solution heated to 37° C. through the trachea, using a syringe dosing device.
The blood was analyzed with a hemocytometer to determine leykoformula.
(§5) The study comprised 3 experiments, wherein the first one was directed to the evaluation of the effect of claimed compounds 1-6 on the cell composition of the BAL, the second and the third experiments were aimed at evaluating the effect of compounds 1 and 2 on the cell composition of the BAL, the cell composition of the blood, and on the bronchospasm severity.

The test system is the same in test [3]. Description: Content of cell elements in BAL in the model of bronchial asthma in guinea pigs. The test is classed as in vivo, guinea pig. As to the method: as §1, §2, §3, §4
The absolute number of cell elements in 1 μL of the lavage (cytosis) was counted in the bronchoalveolar lavage, using the Goryaev camera. Then, the BAL was centrifuged at 200 g for 10 minutes. The residue was used to prepare swabs that were fixed in methanol and stained according to Romanovsky-Giemsa to count endopulmonary cytogram.
as §5

Test [4] shares this test system. Description: Severity of bronchospasm in the model of bronchial asthma in guinea pigs. The test is classed as in vivo, guinea pig. The conditions noted are these: Experiment No. 2, 6 times, n = 8. How it is done: as §1, §2, §3
The bronchospastic reaction was assessed by a change in the rate and depth of the respiratory movements and by the asphyxia symptom such as fall to one side. Spirogram was registered by laboratory experimental equipment (ADInstruments, Australia), using a base recording station (PowerLab 8sp.) and software LabCart. The registration was made using airflow sensors for laboratory animals and a spirograph with an integrated amplifier (ADInstruments).
as §5

Where [5] appears, read: Table 8, 0.5 mg/kg by inhalation, four times (reference preparation), n = 10.
Setting [6] is: Table 4, 14 mg/kg, 10 times of administration, n = 9.
Where [7] appears, read: Table 5 Experiment No. 2, 0.14 mg/kg, 6 times, n = 8.
[8] abbreviates: Table 5 Experiment No. 2, 1.4 mg/kg, 6 times, n = 8.
The mark [9] stands for this setting: Table 5 Experiment No. 2, 14 mg/kg, 6 times, n = 8.
[10] abbreviates: Table 9, 1.8 mg/kg intragastric, four times, n = 7.
Where [11] appears, read: Table 9, 18 mg/kg intragastric, four times, n = 7.

Marks after values point to notes of the source that are not given here.

`CCCC1O[C@@H]2C[C@H]3[C@@H]4CCC5=CC(=O)C=C[C@]5(C)[C@H]4[C@@H](O)C[C@]3(C)[C@]2(C(=O)CO)O1` (some centres unmarked) [Budesonide, budesonide, reference compound]: in test [1] (setting [5]), the “Eosinophils, content of cell elements in 1 μL of BAL” value (“Eosinophils, content” for short) is 204 ± 84*& in 1 μL of BAL; the “Leukocytes, content of cell elements in 1 μL of BAL” value (shortened to “Leukocytes, content”) is 1805 ± 318*& in 1 μL of BAL; the “Lymphocytes, content of cell elements in 1 μL of BAL” value (shortened to “Lymphocytes, content”) is 37 ± 10& in 1 μL of BAL; the “Macrophages, content of cell elements in 1 μL of BAL” value (“Macrophages, content” below) is listed as 1230 ± 205 in 1 μL of BAL. Besides, in test [1] (setting [5]), the “Neutrophils, content of cell elements in 1 μL of BAL” value (from here on “Neutrophils, content”) is recorded as 334 ± 119 in 1 μL of BAL.
As for `O=C1CCCC(=O)N1CCc1ncc[nH]1` [Compound 2], in test [2] (0.14 mg/kg), the “Banded neutrophils in the blood” value was 0.18 ± 0.04 10^9/L, the “Basophils in the blood” value is 0 ± 0 10^9/L, the “Cytosis in the blood” value was 7.80 ± 0.77*& 10^9/L and the “Eosinophils in the blood” value was 0.09 ± 0.03& 10^9/L. Also, in test [2] (0.14 mg/kg), the “Lymphocytes in the blood” value is on record as 3.95 ± 0.54& 10^9/L, the “Monocytes in the blood” value is reported as 0.18 ± 0.06 10^9/L and the “Segmented neutrophils in the blood” value was 3.41 ± 0.41*& 10^9/L. Also, in test [2] (1.4 mg/kg), the “Banded neutrophils in the blood” value is on record as 0.21 ± 0.03 10^9/L, the “Basophils in the blood” value is 0 ± 0 10^9/L, the “Cytosis in the blood” value is reported as 7.70 ± 0.40*& 10^9/L and the “Eosinophils in the blood” value was 0.1 ± 0.03& 10^9/L. Moreover, in test [2] (1.4 mg/kg), the “Lymphocytes in the blood” value is on record as 3.68 ± 0.25& 10^9/L, the “Monocytes in the blood” value is on record as 0.18 ± 0.06 10^9/L and the “Segmented neutrophils in the blood” value is reported as 3.53 ± 0.37*& 10^9/L. Also, in test [2] (14 mg/kg), the “Banded neutrophils in the blood” value is 0.17 ± 0.04 10^9/L, the “Basophils in the blood” value is recorded as 0 ± 0 10^9/L, the “Cytosis in the blood” value is given as 6.93 ± 0.77& 10^9/L and the “Eosinophils in the blood” value is recorded as 0.1 ± 0.04& 10^9/L. In test [2] (14 mg/kg), the “Lymphocytes in the blood” value is 3.51 ± 0.41& 10^9/L, the “Monocytes in the blood” value is on record as 0.24 ± 0.08 10^9/L and the “Segmented neutrophils in the blood” value is listed as 2.9 ± 0.38& 10^9/L. Further, in test [3] (setting [6]), the “Eosinophils in BAL” value is listed as 1.30 ± 0.29*& 10^9/L, the “Lymphocytes in BAL” value is listed as 1.53 ± 0.50* 10^9/L, the “Monocytes in BAL” value is recorded as 0.60 ± 0.14* 10^9/L and the “Neutrophils in BAL” value is given as 1.05 ± 0.16*& 10^9/L. In addition, in test [3] (setting [7]), the “Cytosis in BAL” value is recorded as 0.55 ± 0.09*& 10^9/L, the “Eosinophils in BAL” value is 0.20 ± 0.03*& 10^9/L, the “Lymphocytes in BAL” value was 0.07 ± 0.02& 10^9/L and the “Monocytes in BAL” value is 0.24 ± 0.06*& 10^9/L. Moreover, in test [3] (setting [7]), the “Neutrophils in BAL” value was 0.03 ± 0.008*& 10^9/L. In test [3] (setting [8]), the “Cytosis in BAL” value is reported as 0.63 ± 0.09*& 10^9/L, the “Eosinophils in BAL” value was 0.18 ± 0.02*& 10^9/L, the “Lymphocytes in BAL” value is given as 0.06 ± 0.01& 10^9/L and the “Monocytes in BAL” value is 0.29 ± 0.07* 10^9/L. Besides, the “Neutrophils in BAL” value in test [3] (setting [8]) is on record as 0.09 ± 0.002 10^9/L. In addition, in test [3] (setting [9]), the “Cytosis in BAL” value is listed as 0.56 ± 0.008*& 10^9/L, the “Eosinophils in BAL” value is reported as 0.21 ± 0.06*& 10^9/L, the “Lymphocytes in BAL” value is reported as 0.07 ± 0.009& 10^9/L and the “Monocytes in BAL” value is 0.22 ± 0.05*& 10^9/L. Moreover, the “Neutrophils in BAL” value in test [3] (setting [9]) is 0.07 ± 0.002 10^9/L. In test [4] (0.14 mg/kg), the “The number of animals with moderate bronchospasm (without acute phase, with subacute phase, with breath management)” value was found to be 1; the “The number of animals with moderate bronchospasm (without acute phase, with subacute phase, without breath management)” value amounted to 1; the “The number of animals with severe bronchospasm (in acute and subacute phase)” value (shortened to “The number … (in acute and subacute phase)”) is 2; the “The number of animals without bronchospasm” value is on record as 4. In addition, in test [4] (1.4 mg/kg), the “The number of animals with moderate bronchospasm (without acute phase, with subacute phase, with breath management)” value is 0; the “The number of animals with moderate bronchospasm (without acute phase, with subacute phase, without breath management)” value is 3; the “The number … (in acute and subacute phase)” value is 1; the “The number of animals without bronchospasm” value turned out to be 4. Also, in test [4] (14 mg/kg), the “The number of animals with moderate bronchospasm (without acute phase, with subacute phase, with breath management)” value stood at 1; the “The number of animals with moderate bronchospasm (without acute phase, with subacute phase, without breath management)” value amounted to 0; the “The number … (in acute and subacute phase)” value was determined as 2; the “The number of animals without bronchospasm” value is 5.
With `CC1(C)CC(=O)N(CCc2cnc[nH]2)C(=O)C1` [Compound 3], in test [3] (setting [6]), the “Eosinophils in BAL” value is given as 0.93 ± 0.31*& 10^9/L, the “Lymphocytes in BAL” value is reported as 0.72 ± 0.08* 10^9/L, the “Monocytes in BAL” value is 0.71 ± 0.18& 10^9/L and the “Neutrophils in BAL” value was 0.36 ± 0.08 10^9/L.
For `O=C1CCCC(=O)N1CCc1nc2ccccc2s1` [Compound 4, 1-(2-(1,3-benzothiazol-2-yl)ethyl)piperidine-2,6-dione], in that order: 1.25 ± 0.34*& 10^9/L, 0.81 ± 0.11* 10^9/L, 0.85 ± 0.19& 10^9/L and 0.43 ± 0.12 10^9/L.
With `O=C1CCCC(=O)N1CCc1nccs1` [Compound 6], in test [3] (setting [6]), the “Eosinophils in BAL” value was 0.60 ± 0.21*& 10^9/L, the “Lymphocytes in BAL” value is recorded as 1.03 ± 0.24* 10^9/L, the “Monocytes in BAL” value is reported as 0.83 ± 0.18* 10^9/L and the “Neutrophils in BAL” value was 0.97 ± 0.28* 10^9/L.
On to `Cl.O=C1CCCC(=O)N1CCC1CCCN1` (centres unmarked) [Compound 7], for which, in test [1] (setting [10]), the “Eosinophils, content” value is 28 ± 16& in 1 μL of BAL; the “Leukocytes, content” value was 2242 ± 289& in 1 μL of BAL; the “Lymphocytes, content” value is reported as 16 ± 10 in 1 μL of BAL; the “Macrophages, content” value was 913 ± 235& in 1 μL of BAL. In addition, the “Neutrophils, content” value in test [1] (setting [10]) is 389 ± 188 in 1 μL of BAL. Besides, in test [1] (setting [11]), the “Eosinophils, content” value is reported as 164 ± 62 & in 1 μL of BAL; the “Leukocytes, content” value is 1725 ± 345& in 1 μL of BAL; the “Lymphocytes, content” value is reported as 29 ± 17 in 1 μL of BAL; the “Macrophages, content” value is on record as 909 ± 299& in 1 μL of BAL. Besides, the “Neutrophils, content” value in test [1] (setting [11]) is reported as 136 ± 50& in 1 μL of BAL.
Consider `CC1CC(=O)N(CCc2cnc[nH]2)C(=O)C1` [Compound 8], for which, in test [1] (setting [10]), the “Eosinophils, content” value was 202 ± 53*& in 1 μL of BAL; the “Leukocytes, content” value is 2796 ± 333 & in 1 μL of BAL; the “Lymphocytes, content” value is 82 ± 44 in 1 μL of BAL; the “Macrophages, content” value is reported as 1860 ± 204& in 1 μL of BAL. Besides, the “Neutrophils, content” value in test [1] (setting [10]) is 303 ± 104& in 1 μL of BAL. Further, in test [1] (setting [11]), the “Eosinophils, content” value was 318 ± 65*& in 1 μL of BAL; the “Leukocytes, content” value is listed as 4250 ± 576 in 1 μL of BAL; the “Lymphocytes, content” value is 64 ± 45 in 1 μL of BAL; the “Macrophages, content” value is listed as 2050 ± 462& in 1 μL of BAL. The “Neutrophils, content” value in test [1] (setting [11]) is recorded as 583 ± 180 in 1 μL of BAL.
